From ChEMBL document CHEMBL5608141, “Identification of compartment-specific drug sensitivities in CRC organoid-stroma co-cultures” (2024)

Experiments:
Type in all cases: functional, Homo sapiens
Set-up in all cases: dose or concentration left out as unconfirmed
Colon cancer organoid [1] = experiment: Identification of compartment-specific drug sensitivities in O20 CRC organoid-stroma F20 CAF co-cultures. Organoid is transduced with Lucferase2-P2A-EGFP lentivirus, fibroblast with Renilla-dsRed lentivirus. Dual-Glo Luciferase assay is used to report viability data.
Colon cancer organoid [2] = experiment: Identification of compartment-specific drug sensitivities in O06 CRC organoid-stroma F06 CAF co-cultures. Organoid is transduced with Lucferase2-P2A-EGFP lentivirus, fibroblast with Renilla-dsRed lentivirus. Dual-Glo Luciferase assay is used to report viability data.
Colon cancer organoid [3] = experiment: Identification of compartment-specific drug sensitivities in O14 CRC organoid-stroma F14 CAF co-cultures. Organoid is transduced with Lucferase2-P2A-EGFP lentivirus, fibroblast with Renilla-dsRed lentivirus. Dual-Glo Luciferase assay is used to report viability data.
[4] = Transduced with Lucferase2-P2A-EGFP lentivirus
[5] = Transduced with Renilla-dsRed lentivirus

| Structure (SMILES) | Cell Viability (Colon cancer organoid [1]; [4]) [%] | Cell Viability (Colon cancer organoid [1]; [5]) [%] | Cell Viability (Colon cancer organoid [2]; [4]) [%] | Cell Viability (Colon cancer organoid [2]; [5]) [%] | Cell Viability (Colon cancer organoid [3]; [4]) [%] | Cell Viability (Colon cancer organoid [3]; [5]) [%] |
| --- | --- | --- | --- | --- | --- | --- |
| Cl.Cl.Cl.c1ccc(N2CCN(Cc3nc4ccccc4[nH]3)CC2)nc1 | 41.4322 | 124.541 | 46.7197 | 192.419 | 99.1029 | 116.587 |
| C[C@@H]1CN(c2cc(-c3nn(C)c4ccc(OC5(C)CC5)cc34)ncn2)C[C@H](C)O1 [MLi-2-NC] | 112.711 | 86.6644 | 55.8067 | 87.1439 | 144.766 | 104.291 |
| O=C(O)c1ccc(-c2c[nH]c3ncc(-c4ccccc4)cc23)cc1C1CCCC1 [GSK-650394] | 93.9419 | 129.576 | 92.5027 | 110.19 | 112.026 | 70.7781 |
| CC1=C(C)C(=O)C(C(C)(C)CC(=O)N(CCCCSC[C@H]2O[C@@H](n3cnc4c(N)ncnc43)[C@@H]3OC(C)(C)O[C@@H]32)Cc2cccc(-c3ccc(Cl)cc3)c2)=C(C)C1=O | 98.0775 | 117.278 | 82.0361 | 129.013 | 94.9972 | 94.497 |
| COc1cc2c(cc1OCCCN1CCCC1)N=C(N)C21CCC1 | 76.3645 | 100.254 | 84.9948 | 83.704 | 87.6121 | 63.8775 |
| O=C(N1CCS(=O)(=O)CC1)N1C[C@H](c2ccc(OC(F)(F)F)cc2)C[C@H](c2nc(C3CC3)no2)C1 [BAY-386] | 61.9652 | 114.29 | 109.098 | 172.496 | 96.4412 | 110.483 |
| CO[C@H]1CNC[C@@H](OCC2CCC(F)(F)CC2)[C@@H]1Nc1ncc(-c2cncc(C)c2)c2cc(C)c(=O)[nH]c12 | 171.771 | 122.949 | 95.0954 | 138.476 | 145.9 | 102.552 |
| CCCc1cc(C)[nH]c(=O)c1CNC(=O)c1cc(-c2ccc(N3CCN(C(C)C)CC3)nc2)cc2c1cnn2C(C)C | 59.2451 | 157.842 | 81.1391 | 118.175 | 84.6561 | 97.5786 |
| COCc1nc2cnc3cc(-c4c(C)noc4C)c(OC[C@H]4CCNC4)cc3c2n1[C@H](C)c1ccccc1 [GSK778] | 27.6505 | 143.906 | 81.063 | 183.714 | 41.3417 | 133.991 |
| O=C(CCCCCCNC(=O)c1cnc(N(c2ccccc2)c2ccccc2)nc1)NO [RICOLINOSTAT] | 159.49 | 130.22 | 80.064 | 143.43 | 136.319 | 100.142 |
| COc1cc(C(=O)O)ncc1C#Cc1ccccc1NS(=O)(=O)c1cccc2c(N(C)C)ccnc12 [MSC-0516] | 90.203 | 109.372 | 46.2412 | 64.6541 | 102.238 | 113.463 |
| Cc1ccccc1Oc1cc(-n2c(=O)cc(C(F)(F)F)[nH]c2=O)c2ccccc2c1Cl [BAY-069] | 84.1162 | 119.466 | 128.819 | 153.89 | 126.47 | 121.899 |
| CCOc1cc2ncc(C#N)c(Nc3ccc(OCc4cccc(F)c4)c(Cl)c3)c2cc1NC(=O)/C=C/CN(C)C [HKI-357] | 50.6947 | 47.1207 | 16.8896 | 39.6819 | 38.7389 | 28.7857 |
| Cc1ccc2nc(NCCN)c3ncc(C)n3c2c1.O=C(O)C(F)(F)F.O=C(O)C(F)(F)F | 234.528 | 67.6056 | 94.0156 | 112.188 | 111.823 | 88.3847 |
| CCOC(=O)c1c(/C(C#N)=C\N)c2ccc(Cl)c(Cl)c2n1C | 91.9928 | 87.4636 | 122.99 | 97.4073 | 89.9628 | 62.6784 |
| Cc1cc(-n2nc(Cc3cc(F)cc(C(F)(F)F)c3)nc2C)ccc1C(N)=O [TP-024] | 120.055 | 118.791 | 115.389 | 121.941 | 124.645 | 106.61 |
| Cc1cnc(-c2cc(Cl)ccc2F)cc1-n1c(=O)n(CC(N)=O)c2cnccc21 [TP-008] | 64.1266 | 114.054 | 13.7504 | 213.932 | 74.2388 | 68.4272 |
| Cc1cnc(-c2cc(Cl)ccc2F)cc1-n1c(=O)n(CC(N)=O)c2ccccc21 [Al11] | 100.628 | 109.542 | 79.8154 | 66.9379 | 90.2433 | 100.795 |
| CNC(=O)c1ccc(Nc2ncc(C(F)(F)F)c(NCc3nccnc3N(C)S(C)(=O)=O)n2)cc1 [DEFACTINIB] | 57.0475 | 79.7534 | 119.668 | 427.019 | 78.9872 | 82.2867 |
| CNc1cc(Oc2cc(C(=O)Nc3cc(N4CCN(C)CC4)cc(C(F)(F)F)c3)ccc2C)ncn1 | 163.613 | 75.5289 | 72.9479 | 75.3319 | 198.58 | 101.862 |
| O=C1c2ccc(Nc3ccc(F)cc3F)cc2CCc2ccc(OC[C@H](O)CO)cc21 [Skepinone-L] | 88.6485 | 86.6611 | 115.343 | 88.0925 | 166.491 | 75.8508 |
| C=CC(=O)N1CCC([C@@H]2CCNc3c(C(N)=O)c(-c4ccc(Oc5ccccc5)cc4)nn32)CC1 [ZANUBRUTINIB] | 8.4337 | 202.782 | 36.1998 | 136.235 | 25.5759 | 117.13 |
| Cc1c(N2CCNCC2)nc2ccc(Br)cc2c1C(=O)NC[C@H](CCC(=O)O)c1ccccc1Cl [BAY-403] | 121.312 | 79.2483 | 78.4474 | 70.4581 | 117.744 | 98.3874 |
| Nc1nc(NCc2ccccc2)nc(-c2cccc(CO)c2)n1 [ZINC32547799] | 125.25 | 66.6285 | 97.3324 | 116.001 | 98.7801 | 87.8082 |
